Data: patent US12370235B2, “Synthetic, non-natural antimicrobial peptides inspired by Staphylococcus auricularis delta toxin” (University of Saskatchewan, priority 2021, dated 2025)
Where two headings read alike, the source gives them in different places. Ends that are not written are not given here.

System: S. aureus / MRSA (ATCC MP-2 panel)
Assay type: cell-based, Staphylococcus aureus
Summary of the method: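 MIC by broth microdilution in cation-adjusted Mueller Hinton broth: cultures diluted to OD 6×10^−4 and exposed to 2-fold peptide dilution series, standing overnight at 37° C. MIC = lowest peptide concentration with no visible growth. Panel: one methicillin-sensitive S. aureus plus 7 MRSA strains of distinct SCCmec genotypes.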

TVGGLVKWILKTVKKFA-NH2 [STIP3-29, TVGGLVKWILKTVKKFA-NH2]
MIC, MRSA: 6.25 µg/mL | MIC, MRSA (molar): 3.3 µM | fold improvement of activity (MIC) (relative to STIP3-1, S. aureus / MRSA): 16 fold
